Assay results as given in patent US11673889B2, “Substituted imidazo[4,5-c][1,8]naphthyridines as phosphodiesterase inhibitors” (Nanjing Zhengxiang Pharmaceuticals Co., Ltd., priority 2019, dated 2023).

How the values were obtained:
Pharmacokinetics in mice = format: in vivo; settings: mouse, plasma, male CD-1 mice; for AUC / clearance / half-life / Vd: 1 mg/kg, iv; for Vd: read-out: Vdss
In short: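 Male CD-1 mice (3 per group) dosed at 1 mg/kg IV bolus and 5 mg/kg oral gavage in 5% DMSO/40% PEG400/55% water. Jugular blood sampled from 0.033 (IV) or 0.083 (PO) up to 24 h. Plasma measured by LC/MS/MS, with PK parameters from non-compartmental analysis.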

human soluble ENPP1 = target: T1, human soluble ENPP1 (Homo sapiens, UniProt P22413); experiment: ENPP1 activity assay using p-Nitrophenyl-5′-AMP as a substrate; format: biochemical
T1 construct: 20 ng of human soluble ENPP1
T1 sequence (P22413 103-925 limits assumed): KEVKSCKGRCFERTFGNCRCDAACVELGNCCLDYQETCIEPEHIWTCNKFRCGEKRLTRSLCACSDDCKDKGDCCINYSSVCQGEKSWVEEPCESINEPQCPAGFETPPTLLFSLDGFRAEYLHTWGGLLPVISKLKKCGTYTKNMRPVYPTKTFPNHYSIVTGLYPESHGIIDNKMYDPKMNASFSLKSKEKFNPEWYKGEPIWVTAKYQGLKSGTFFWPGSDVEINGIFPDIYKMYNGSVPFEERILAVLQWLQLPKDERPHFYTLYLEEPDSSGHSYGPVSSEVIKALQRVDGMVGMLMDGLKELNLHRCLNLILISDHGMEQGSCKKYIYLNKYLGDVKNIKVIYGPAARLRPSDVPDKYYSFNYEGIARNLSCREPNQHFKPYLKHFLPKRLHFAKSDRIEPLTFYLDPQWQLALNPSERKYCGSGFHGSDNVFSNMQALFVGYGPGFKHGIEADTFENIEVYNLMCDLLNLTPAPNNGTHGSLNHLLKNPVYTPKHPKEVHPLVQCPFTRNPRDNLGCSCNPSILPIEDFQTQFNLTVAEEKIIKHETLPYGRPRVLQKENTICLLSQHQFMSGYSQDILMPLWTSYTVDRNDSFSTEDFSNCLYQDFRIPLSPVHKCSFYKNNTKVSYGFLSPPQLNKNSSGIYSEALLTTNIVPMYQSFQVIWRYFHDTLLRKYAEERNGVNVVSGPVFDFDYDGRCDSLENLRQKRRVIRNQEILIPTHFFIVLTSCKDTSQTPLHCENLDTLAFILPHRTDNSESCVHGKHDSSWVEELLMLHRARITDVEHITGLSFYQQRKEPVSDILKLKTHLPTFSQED
In short: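 Human soluble ENPP1 (35 ng) preincubated with inhibitor 30 min at RT, then p-nitrophenyl-5′-AMP added (3 mM solution, 2× final) and incubated 1 h at RT. p-Nitrophenolate release read at OD 405 nm; % inhibition vs no-inhibitor and blank controls, IC50 from four-parameter fit.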

ENPP-1, MDA-MB-231 cells = target: T2, ENPP-1, MDA-MB-231 cells (Homo sapiens, UniProt P22413); experiment: cell-based; settings: for inhibition at 20 µM: MDA-MB-231, read-out: % Inhibition (at 20 μM)
T2 sequence (P22413 1-925): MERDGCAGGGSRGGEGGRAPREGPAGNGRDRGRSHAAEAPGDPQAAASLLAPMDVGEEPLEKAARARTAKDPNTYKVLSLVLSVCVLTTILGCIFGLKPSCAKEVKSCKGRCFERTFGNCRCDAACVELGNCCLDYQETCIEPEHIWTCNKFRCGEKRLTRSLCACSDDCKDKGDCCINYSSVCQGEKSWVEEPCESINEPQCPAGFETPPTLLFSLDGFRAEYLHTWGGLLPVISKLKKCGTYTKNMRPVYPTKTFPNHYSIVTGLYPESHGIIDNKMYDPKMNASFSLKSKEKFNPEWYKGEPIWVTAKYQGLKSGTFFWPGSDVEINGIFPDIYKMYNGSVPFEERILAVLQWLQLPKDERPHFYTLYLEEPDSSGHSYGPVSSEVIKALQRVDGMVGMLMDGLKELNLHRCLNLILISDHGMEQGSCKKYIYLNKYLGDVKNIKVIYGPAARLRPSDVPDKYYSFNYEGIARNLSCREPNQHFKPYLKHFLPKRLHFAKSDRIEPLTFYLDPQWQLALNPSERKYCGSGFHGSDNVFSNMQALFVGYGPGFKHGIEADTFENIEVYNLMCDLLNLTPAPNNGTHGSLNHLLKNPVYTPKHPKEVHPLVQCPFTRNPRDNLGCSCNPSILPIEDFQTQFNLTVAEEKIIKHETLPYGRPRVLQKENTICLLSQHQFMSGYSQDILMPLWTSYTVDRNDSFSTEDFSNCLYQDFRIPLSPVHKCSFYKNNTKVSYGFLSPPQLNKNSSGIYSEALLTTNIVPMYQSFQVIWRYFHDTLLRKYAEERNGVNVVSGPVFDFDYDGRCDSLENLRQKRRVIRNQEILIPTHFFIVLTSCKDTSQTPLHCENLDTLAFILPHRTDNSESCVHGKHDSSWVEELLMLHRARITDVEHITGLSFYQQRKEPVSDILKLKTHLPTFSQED

Structure (SMILES) | AUC (Pharmacokinetics in mice) [µg·h/mL] | clearance (Pharmacokinetics in mice) [L/h/kg] | half-life (Pharmacokinetics in mice) [min] | Vd (Pharmacokinetics in mice) [L/kg] | IC50 (human soluble ENPP1) [µM] | IC50 (ENPP-1, MDA-MB-231 cells) [µM] | inhibition at 20 µM (ENPP-1, MDA-MB-231 cells) [%] | bioavailability (Pharmacokinetics in mice; oral gavage (PO) at 5 mg/kg vs IV 1 mg/kg) [%]
COc1ccc2c(ncc3nc(C)n(Cc4ccc(S(N)(=O)=O)cc4)c32)n1 [Compound 48, 4-((7-methoxy-2-methyl-1H-imidazo[4,5-c][1,8]naphthyridin-1-yl)methyl)benzenesulfonamide] | 0.239 | 4.2 | 19.8 | 1.7 | 0.00044 | 0.55 | 80 | –
COc1cc2ncc3ncn(Cc4ccc(S(N)(=O)=O)cn4)c3c2cc1OC [Compound 12, 6-((7,8-dimethoxy-1H-imidazo[4,5-c]quinolin-1-yl)methyl)pyridine-3-sulfonamide] | 0.093 | 10.8 | 15 | 2.9 | 0.0039 | 0.55 | 79 | 0
COc1ccc2c(n1)nc(C)c1nc(C)n(Cc3ccc(S(N)(=O)=O)cn3)c12 [Compound 89, 6-((7-methoxy-2,4-dimethyl-1H-imidazo[4,5-c][1,8]naphthyridin-1-yl)methyl)pyridine-3-sulfonamide] | 0.656 | 1.56 | 32.4 | 0.8 | 0.0021 | 0.41 | 78 | –
